According to patent US11304419B2, “Methods to induce heat stress tolerance in plants” (Valent BioSciences LLC, priority 2020, dated 2022):

Key:
Assay type in all cases: in vivo
Apogee wheat [1] = test: Heat stress tolerance in wheat following ACC application during flowering; details: heat stress 36/30° C. 7 days, n = 8
Method: 24 pots of Apogee wheat were grown in a greenhouse under 3 consecutive growing conditions. First, the wheat was planted in ProMix® growth media and grown for about 6 weeks in a growth cabinet at 24/18° C. day/night temperature under a 16/8 hour light/dark photoperiod. Plants were at Feekes stage 10.4-10.5 (flowering stage) following the first set of growth conditions. Next, spray applications of 0, 30 or 100 ppm ACC (n=8) were made using a tank sprayer. Next, 2 days following treatment, the plants were transferred to a growth chamber at 36/30° C. day/night temperature under a 16/8-hour light/dark photoperiod for 7 days. These conditions constitute significant heat stress. Finally, the plants were then returned to growth chamber at 24/18° C. day/night temperature under a 16/8-hour light/dark photoperiod for about 5 additional weeks. Plants were then destructively harvested and measured for total spike number, spike weight, grain weight, yield per spike, A spike number and harvest index. A spike number is calculated by subtracting the number of reproductive tillers at treatment from the number of reproductive tillers at harvest. An increase in reproductive tillers is indicative of an increase in reproductive success. Harvest index is calculated by dividing pounds of grain by the total pounds of above ground biomass.

Apogee wheat [2] = test: Heat stress tolerance in wheat following ACC application at Feekes stage 5 (Example 3); details: heat stress 34/28° C. 4 days; for % Reproductive Tillers / Fresh Weight / Total Dry Weight / Total Spike Number / Total Tiller Number / Δ Canopy Density: n = 8; for % Reproductive Tillers, percent increase over stress control / Fresh Weight, percent increase over stress control / Total Dry Weight, percent increase over stress control / Total Spike Number, percent increase over stress control / Total Tiller Number, percent increase over stress control / Δ Canopy Density, percent increase over stress control: vs stress control (no heat); for % Reproductive Tillers, percent increase over treatment control / Fresh Weight, percent increase over treatment control / Total Dry Weight, percent increase over treatment control / Total Spike Number, percent increase over treatment control / Total Tiller Number, percent increase over treatment control / Δ Canopy Density, percent increase over treatment control: vs treatment control (heat, no ACC)
Method: Apogee wheat was seeded into ProMix BX (Premier Horticulture) and grown in a growth cabinet under the following conditions: 24/18° C. day/night temperature under a 16/8 hour light/dark photoperiod. Plants were at Feekes stage 5 following the first set of growth conditions. Next, spray applications of 0, 0, 100 or 300 ppm ACC (n=8) were made using a track sprayer on Oct. 4, 2019. […] These conditions constitute significant heat stress. The other set of control plants (“stress control”) remained in the first growth cabinet. Finally, the plants were then returned to the first growth cabinet for about 14 days where plants reached Feekes stage 10.1 (head emergence). Plants were then destructively harvested and measured for total spike number, fresh weight, total reproductive tiller number, percent reproductive tillers, A canopy density and total dry weight. Percent reproductive tillers is calculated by dividing the number of reproductive tillers by the total number of spikes at harvest. A canopy density is calculated by subtracting the canopy density at treatment from the canopy density at harvest.

Williams 82 soybean = test: Heat stress tolerance in soybean following ACC application; details: heat stress 34/30° C. six days; for Canopy Density / Fresh Weight / Height / Total Dry Weight / Δ Canopy Density: n = 5; for Canopy Density, percent increase over stress control / Fresh Weight, percent increase over stress control / Height, percent increase over stress control / Total Dry Weight, percent increase over stress control / Δ Canopy Density, percent increase over stress control: vs stress control; for Canopy Density, percent increase over treatment control / Fresh Weight, percent increase over treatment control / Height, percent increase over treatment control / Total Dry Weight, percent increase over treatment control / Δ Canopy Density, percent increase over treatment control: vs treatment control
Method: Williams 82 soybean was seeded into ProMix BX (Premier Horticulture) and grown in a greenhouse. […] Next, spray applications of […] (n=5) were made using a track sprayer on Oct. 9, 2020. Following spraying, plants were moved to a growth cabinet under the following conditions: 24/18 C day night temperatures under a 16/8 light dark period. Next, 3 days following treatment, half of the plants were transferred to a second growth cabinet at 34/30° C. day/night temperature under a 16/8-hour light/dark photoperiod for six days. These conditions constitute early season heat stress. Plants were then destructively harvested and measured for fresh weight, canopy density, Δ canopy density, total dry weight and height.

[3] = 30 ppm ACC spray at Feekes stage 10.4-10.5
[4] = 100 ppm ACC spray at Feekes stage 10.4-10.5
[5] = 100 ppm ACC spray at Feekes stage 5
[6] = 300 ppm ACC spray at Feekes stage 5

NC1(C(=O)O)CC1 [ACC, 1-amino-1-cyclopropanecarboxylic acid]
Grain Weight (Apogee wheat [1]; [3]): 3.1 grams
Harvest Index (Apogee wheat [1]; [3]): 0.32
Spike Weight (Apogee wheat [1]; [3]): 5.39 grams
Total Spike Number (Apogee wheat [1]; [3]): 6.25
Yield per Spike (Apogee wheat [1]; [3]): 0.5 grams
Δ Spike Number (Apogee wheat [1]; [3]): 1.75
Grain Weight (Apogee wheat [1]; [4]): 3.37 grams
Harvest Index (Apogee wheat [1]; [4]): 0.34
Spike Weight (Apogee wheat [1]; [4]): 5.69 grams
Total Spike Number (Apogee wheat [1]; [4]): 6.5
Yield per Spike (Apogee wheat [1]; [4]): 0.53 grams
Δ Spike Number (Apogee wheat [1]; [4]): 2.13
% Reproductive Tillers (Apogee wheat [2]; [5]): 63.80%
Fresh Weight (Apogee wheat [2]; [5]): 17.95 grams
Total Dry Weight (Apogee wheat [2]; [5]): 4.31 grams
Total Spike Number (Apogee wheat [2]; [5]): 7
Total Tiller Number (Apogee wheat [2]; [5]): 4.38
Δ Canopy Density (Apogee wheat [2]; [5]): 2.65%
% Reproductive Tillers, percent increase over stress control (Apogee wheat [2]; 100 ppm ACC): (−11.5%)
Fresh Weight, percent increase over stress control (Apogee wheat [2]; 100 ppm ACC): (4.6%)
Total Dry Weight, percent increase over stress control (Apogee wheat [2]; 100 ppm ACC): (−5.5%)
Total Spike Number, percent increase over stress control (Apogee wheat [2]; 100 ppm ACC): (24.3%)
Total Tiller Number, percent increase over stress control (Apogee wheat [2]; 100 ppm ACC): (9.5%)
Δ Canopy Density, percent increase over stress control (Apogee wheat [2]; 100 ppm ACC): (3.5%)
% Reproductive Tillers, percent increase over treatment control (Apogee wheat [2]; 100 ppm ACC): [−0.8%]
Fresh Weight, percent increase over treatment control (Apogee wheat [2]; 100 ppm ACC): [5.8%]
Total Dry Weight, percent increase over treatment control (Apogee wheat [2]; 100 ppm ACC): [11.1%]
Total Spike Number, percent increase over treatment control (Apogee wheat [2]; 100 ppm ACC): [12.0%]
Total Tiller Number, percent increase over treatment control (Apogee wheat [2]; 100 ppm ACC): [12.9%]
Δ Canopy Density, percent increase over treatment control (Apogee wheat [2]; 100 ppm ACC): [5.2%]
% Reproductive Tillers (Apogee wheat [2]; [6]): 63.10%
Fresh Weight (Apogee wheat [2]; [6]): 16.74 grams
Total Dry Weight (Apogee wheat [2]; [6]): 4.33 grams
Total Spike Number (Apogee wheat [2]; [6]): 6.38
Total Tiller Number (Apogee wheat [2]; [6]): 3.88
Δ Canopy Density (Apogee wheat [2]; [6]): 2.36%
% Reproductive Tillers, percent increase over stress control (Apogee wheat [2]; 300 ppm ACC): (−12.5%)
Fresh Weight, percent increase over stress control (Apogee wheat [2]; 300 ppm ACC): (−2.4%)
Total Dry Weight, percent increase over stress control (Apogee wheat [2]; 300 ppm ACC): (−5.0%)
Total Spike Number, percent increase over stress control (Apogee wheat [2]; 300 ppm ACC): (13.3%)
Total Tiller Number, percent increase over stress control (Apogee wheat [2]; 300 ppm ACC): (−3.0%)
Δ Canopy Density, percent increase over stress control (Apogee wheat [2]; 300 ppm ACC): (−7.8%)
% Reproductive Tillers, percent increase over treatment control (Apogee wheat [2]; 300 ppm ACC): [−1.9%]
Fresh Weight, percent increase over treatment control (Apogee wheat [2]; 300 ppm ACC): [−1.4%]
Total Dry Weight, percent increase over treatment control (Apogee wheat [2]; 300 ppm ACC): [11.6%]
Total Spike Number, percent increase over treatment control (Apogee wheat [2]; 300 ppm ACC): [2.1%]
Total Tiller Number, percent increase over treatment control (Apogee wheat [2]; 300 ppm ACC): [0%]
Δ Canopy Density, percent increase over treatment control (Apogee wheat [2]; 300 ppm ACC): [−6.3%]
Canopy Density (Williams 82 soybean; 10 ppm ACC spray at V1): 13.24
Fresh Weight (Williams 82 soybean; 10 ppm ACC spray at V1): 19.85 grams
Height (Williams 82 soybean; 10 ppm ACC spray at V1): 41.07 cm
Total Dry Weight (Williams 82 soybean; 10 ppm ACC spray at V1): 3.15 grams
Δ Canopy Density (Williams 82 soybean; 10 ppm ACC spray at V1): 7.77
Canopy Density, percent increase over stress control (Williams 82 soybean; 10 ppm ACC): (83.9%)
Fresh Weight, percent increase over stress control (Williams 82 soybean; 10 ppm ACC): (32.8%)
Height, percent increase over stress control (Williams 82 soybean; 10 ppm ACC): (30.1%)
Total Dry Weight, percent increase over stress control (Williams 82 soybean; 10 ppm ACC): (18.9%)
Δ Canopy Density, percent increase over stress control (Williams 82 soybean; 10 ppm ACC): (256.4%)
Canopy Density, percent increase over treatment control (Williams 82 soybean; 10 ppm ACC): [13.6%]
Fresh Weight, percent increase over treatment control (Williams 82 soybean; 10 ppm ACC): [6.5%]
Height, percent increase over treatment control (Williams 82 soybean; 10 ppm ACC): [7.9%]
Total Dry Weight, percent increase over treatment control (Williams 82 soybean; 10 ppm ACC): [6.8%]
Δ Canopy Density, percent increase over treatment control (Williams 82 soybean; 10 ppm ACC): [22.4%]
Canopy Density (Williams 82 soybean; 30 ppm ACC spray at V1): 12.68
Fresh Weight (Williams 82 soybean; 30 ppm ACC spray at V1): 20.33 grams
Height (Williams 82 soybean; 30 ppm ACC spray at V1): 38.25 cm
Total Dry Weight (Williams 82 soybean; 30 ppm ACC spray at V1): 3.25 grams
Δ Canopy Density (Williams 82 soybean; 30 ppm ACC spray at V1): 7.19
Canopy Density, percent increase over stress control (Williams 82 soybean; 30 ppm ACC): (76.1%)
Fresh Weight, percent increase over stress control (Williams 82 soybean; 30 ppm ACC): (36.0%)
Height, percent increase over stress control (Williams 82 soybean; 30 ppm ACC): (21.1%)
Total Dry Weight, percent increase over stress control (Williams 82 soybean; 30 ppm ACC): (22.6%)
Δ Canopy Density, percent increase over stress control (Williams 82 soybean; 30 ppm ACC): (229.8%)
Canopy Density, percent increase over treatment control (Williams 82 soybean; 30 ppm ACC): [8.7%]
Fresh Weight, percent increase over treatment control (Williams 82 soybean; 30 ppm ACC): [9.1%]
Height, percent increase over treatment control (Williams 82 soybean; 30 ppm ACC): [0.5%]
Total Dry Weight, percent increase over treatment control (Williams 82 soybean; 30 ppm ACC): [10.2%]
Δ Canopy Density, percent increase over treatment control (Williams 82 soybean; 30 ppm ACC): [13.2%]
Canopy Density (Williams 82 soybean; 100 ppm ACC spray at V1): 10.90
Fresh Weight (Williams 82 soybean; 100 ppm ACC spray at V1): 19.25 grams
Height (Williams 82 soybean; 100 ppm ACC spray at V1): 37.95 cm
Total Dry Weight (Williams 82 soybean; 100 ppm ACC spray at V1): 3.08 grams
Δ Canopy Density (Williams 82 soybean; 100 ppm ACC spray at V1): 5.36
Canopy Density, percent increase over stress control (Williams 82 soybean; 100 ppm ACC): (51.4%)
Fresh Weight, percent increase over stress control (Williams 82 soybean; 100 ppm ACC): (28.8%)
Height, percent increase over stress control (Williams 82 soybean; 100 ppm ACC): (20.2%)
Total Dry Weight, percent increase over stress control (Williams 82 soybean; 100 ppm ACC): (16.2%)
Δ Canopy Density, percent increase over stress control (Williams 82 soybean; 100 ppm ACC): (145.9%)
Canopy Density, percent increase over treatment control (Williams 82 soybean; 100 ppm ACC): [−6.5%]
Fresh Weight, percent increase over treatment control (Williams 82 soybean; 100 ppm ACC): [3.3%]
Height, percent increase over treatment control (Williams 82 soybean; 100 ppm ACC): [−0.3%]
Total Dry Weight, percent increase over treatment control (Williams 82 soybean; 100 ppm ACC): [4.4%]
Δ Canopy Density, percent increase over treatment control (Williams 82 soybean; 100 ppm ACC): [−15.6%]
